Measurements from patent US10906876B2, “Tetrahydroisoquinolines as selective NADPH oxidase 2 inhibitors” (University of Pittsburgh—Of the Commonwealth System of …, priority 2013, dated 2021).

What was measured:
[1] = molecular target: T1, Bovine milk XO (Bos taurus, UniProt P80457); test: Xanthine oxidase assay (Amplex Red); type: biochemical; settings: compounds at 25 μM and 50 μM (FIG. 4)
T1 construct: Bovine milk XO (grade 1, ammonium sulfate suspension; Sigma-Aldrich); purchased Sigma-Aldrich; host or cells: bovine milk
Description: Bovine milk XO (grade 1, ammonium sulfate suspension; Sigma-Aldrich) was first desalted using PD-10 columns (Sephadex G-25, GE Healthcare Biosciences, Piscataway, N.J.) equilibrated in PBS. XO activity was assayed by measuring H2O2 production using the Amplex® Red assay. Reaction mixture contained: 0.02 U/mL XO, 25 mM Hepes, pH 7.4, containing 0.12 M NaCl, 3 mM KCl, 1 mM MgCl2, 0.1 mM Amplex® Red, and 0.32 U/mL of horse radish peroxidase (HRP), reaction was initiated by addition of 1 mM hypoxanthine. Fluorescence was quantified over time using a Biotek Synergy 4 Hybrid Multi-Mode Microplate Reader.
Data are expressed as % of vehicle control.

[2] = molecular target: T2, p47^phox association with Nox2 (cytochrome b558) (Homo sapiens, UniProt P14598); test: Co-immunoprecipitation of Nox2/p47phox in Cos-Nox2 cells; type: cell-based; settings: Cos-Nox2 cells pre-incubated with compound
T2 construct: expressed in transfected cells
T2 sequence (P14598 1-390): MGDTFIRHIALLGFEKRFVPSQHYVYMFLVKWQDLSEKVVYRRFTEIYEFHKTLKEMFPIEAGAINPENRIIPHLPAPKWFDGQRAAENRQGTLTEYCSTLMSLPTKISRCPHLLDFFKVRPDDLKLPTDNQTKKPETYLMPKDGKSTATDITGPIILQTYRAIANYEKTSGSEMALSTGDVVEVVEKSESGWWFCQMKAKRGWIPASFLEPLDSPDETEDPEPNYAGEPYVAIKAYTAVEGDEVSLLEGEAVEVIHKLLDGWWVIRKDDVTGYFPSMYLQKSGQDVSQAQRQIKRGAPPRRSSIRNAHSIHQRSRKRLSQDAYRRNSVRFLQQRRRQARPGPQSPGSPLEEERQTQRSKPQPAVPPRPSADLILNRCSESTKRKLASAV
Description: 300 μg of cell homogenates were diluted in 0.3 ml HBSS buffer and incubated with 1.25 μg of α-p47^phox antibody (Santa Cruz Biotechnology). After overnight incubation at 4° C. with constant agitation, 10 μl of Protein G-Agarose slurry were added to each sample to pull-down p47^phox: antibody complex. Beads were washed, boiled, run on PAGE-SDS gels and then blotted on nitrocellulose membrane. Western blot analysis was carried out using antibodies against p47^phox and Nox2. Bands were visualized using Odyssey software from Licor and then quantified using ImageJ software.
To interrogate a mode of Nox2 inhibition, in silico interaction analysis of pre-existing atomic structures was employed. […] To further investigate this type of interaction and inhibition, co-immunoprecipitation was used and p47^phox association with cytochrome b558 in Cos-Nox2 cells.

[3] = molecular target: T3, Nox1 hybrid system (Homo sapiens, UniProt Q9Y5S8); test: ROS production of transiently Nox1 hybrid system-transfected Cos cells treated with PMA; type: cell-based; settings: 10 μM compound
T3 construct: Plasmids encoding full-length human cDNAs for Nox1 (pcDNA3.1-hNox1); expressed in transfected cells; host or cells: Cos cells, transient transfection
T3 sequence (Q9Y5S8 1-564): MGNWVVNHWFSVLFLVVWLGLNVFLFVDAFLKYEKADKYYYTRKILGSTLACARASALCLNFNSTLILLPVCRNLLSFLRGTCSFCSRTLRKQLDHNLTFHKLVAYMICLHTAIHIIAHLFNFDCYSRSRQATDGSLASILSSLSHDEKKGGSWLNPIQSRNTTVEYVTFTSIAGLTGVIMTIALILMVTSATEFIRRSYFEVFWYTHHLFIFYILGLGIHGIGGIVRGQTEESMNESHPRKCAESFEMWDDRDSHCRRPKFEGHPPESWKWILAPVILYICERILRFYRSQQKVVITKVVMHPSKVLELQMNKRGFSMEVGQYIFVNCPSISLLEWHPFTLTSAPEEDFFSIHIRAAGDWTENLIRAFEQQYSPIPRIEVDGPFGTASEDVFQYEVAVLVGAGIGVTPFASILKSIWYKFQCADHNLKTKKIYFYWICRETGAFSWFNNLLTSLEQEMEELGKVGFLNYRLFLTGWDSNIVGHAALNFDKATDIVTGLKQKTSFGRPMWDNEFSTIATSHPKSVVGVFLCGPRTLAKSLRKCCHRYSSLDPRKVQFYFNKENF
Description: Cell transfection was carried out using Lipofectamine LTX and Plus reagent (Invitrogen, Carlsbad, Calif., USA), according to the manufacturer's instructions. COS-22 cells were transiently co-transfected with pcDNA 3.1-hNox1, pCMVsport 6-hNOXA1 and pcDNA3.1-hNoxO1 (COS-Nox1/NOXO1/NOXA1 cells) or with pcDNA3.1/Hygro-hNox4 (COS-Nox4 cells). Cells were used 24 hr after transfection. Adherent cells were harvested by incubating with 0.05% trypsin/EDTA for 5 min at 37° C. Following addition of DMEM/10% FBS to neutralize the trypsin, the cells were pelleted by centrifugation at 1100×g for 5 min at 4° C. and used for the experiments.
Since p47^phox activation is important not only for Nox2 activity but also for Nox1 hybrid system present mainly in human endothelial cells, the effect of compounds 11g and 11h on ROS production of transiently Nox2-transfected (FIG. 13) or Nox1 hybrid system-transfected Cos cells (FIG. 14) treated with phorbol ester (PMA) was evaluated.

[4] = test system: rat neonatal cardiomyocytes; test: ROS production of rat neonatal cardiomyocytes treated with high glucose; type: cell-based; settings: 25 mM glucose, 25 μM compound
Description: (§1) Cos-Nox2, Cos-Nox1, human fibroblasts were cultured in DMEM, 10% FBS-supplemented media, human pulmonary artery endothelial cells were cultured in EBM2media containing growth factors (Lonza) and rat neonatal cardiomyocytes were cultured in DMEM/F12 (50/50) media supplemented with 5% horse serum, 100 μM BrdU and Insulin-Transferrin-Selenium (ITS, Gibco).
(§2) To evaluate the pre-clinical potential of compounds 11g and 11h, the effects of high levels of glucose, which induce the generation of reactive oxygen species in cardiomyocytes and may contribute to the development of cardiomyopathy in diabetes, were evaluated. […] Furthermore, both compound 11g and compound 11h were able to reduce cardiomyocyte hypertrophy associated with high glucose challenge (FIG. 16).

[5] = test system: rat neonatal cardiomyocytes; test: Hypertrophy of rat neonatal cardiomyocytes treated with high glucose; type: cell-based; settings: 25 mM glucose, 25 μM compound
Description: as §1
Hypertrophy was assessed by measurement of cardiomyocytes length using ImageJ public domain software (developed by the National Institutes of Health).
as §2

T1 sequence (P80457 whole entry): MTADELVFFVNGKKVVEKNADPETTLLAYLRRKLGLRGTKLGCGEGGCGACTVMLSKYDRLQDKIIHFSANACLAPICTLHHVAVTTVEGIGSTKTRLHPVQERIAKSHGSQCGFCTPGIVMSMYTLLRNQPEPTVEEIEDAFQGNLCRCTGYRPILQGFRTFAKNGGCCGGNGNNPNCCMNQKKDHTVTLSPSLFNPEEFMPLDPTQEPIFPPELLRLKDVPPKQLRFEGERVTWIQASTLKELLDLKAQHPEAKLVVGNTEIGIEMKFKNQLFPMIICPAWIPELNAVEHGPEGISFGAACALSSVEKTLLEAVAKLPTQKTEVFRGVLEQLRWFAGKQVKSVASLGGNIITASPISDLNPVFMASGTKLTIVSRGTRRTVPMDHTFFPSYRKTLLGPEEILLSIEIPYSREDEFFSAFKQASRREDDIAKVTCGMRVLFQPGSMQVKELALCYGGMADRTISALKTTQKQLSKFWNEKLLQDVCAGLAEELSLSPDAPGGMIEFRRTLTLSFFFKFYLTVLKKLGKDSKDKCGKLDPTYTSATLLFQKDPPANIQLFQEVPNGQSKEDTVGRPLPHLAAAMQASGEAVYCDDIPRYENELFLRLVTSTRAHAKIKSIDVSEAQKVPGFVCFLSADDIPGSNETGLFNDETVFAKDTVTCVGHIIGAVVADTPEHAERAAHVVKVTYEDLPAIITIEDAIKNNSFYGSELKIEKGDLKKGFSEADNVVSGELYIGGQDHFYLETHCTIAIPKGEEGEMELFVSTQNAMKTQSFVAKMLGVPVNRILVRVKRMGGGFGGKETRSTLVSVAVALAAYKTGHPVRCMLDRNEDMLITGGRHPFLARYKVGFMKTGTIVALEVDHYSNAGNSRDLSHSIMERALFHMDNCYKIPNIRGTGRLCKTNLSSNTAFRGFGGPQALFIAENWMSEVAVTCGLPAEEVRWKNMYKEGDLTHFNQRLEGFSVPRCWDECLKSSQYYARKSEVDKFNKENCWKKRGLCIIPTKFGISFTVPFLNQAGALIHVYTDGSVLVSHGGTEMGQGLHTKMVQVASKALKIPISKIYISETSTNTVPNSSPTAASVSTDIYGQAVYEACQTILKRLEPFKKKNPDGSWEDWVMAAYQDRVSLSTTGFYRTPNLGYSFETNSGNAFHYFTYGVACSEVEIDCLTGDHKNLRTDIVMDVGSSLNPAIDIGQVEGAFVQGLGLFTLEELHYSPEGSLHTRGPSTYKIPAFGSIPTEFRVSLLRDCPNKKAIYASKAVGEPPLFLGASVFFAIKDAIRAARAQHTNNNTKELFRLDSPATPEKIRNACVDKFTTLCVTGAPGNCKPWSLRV

Compound | Effect on ROS production by xanthine oxidase [1] | Attenuation of PMA-promoted p47phox/Nox2 interaction (co-immunoprecipitation) [2] [%] | PMA-stimulated ROS production, Nox1 hybrid system-transfected Cos cells [3] | High glucose-dependent ROS production in rat cardiomyocytes [4] | Cardiomyocyte hypertrophy with high glucose challenge [5]
C=C(C)CC1C2c3c(Br)cccc3C(CC2(C)C)N1CCCCC (racemic) [Compound 11g, (±)-(1S,4R,9S)-5-Bromo-3,3-dimethyl-9-(2-methylallyl-10-pentyl-1,2,3,4-tetrahydro-1,4-(epiminomethano)naphthalene] | virtually no effect | 34.3±6.07 | inhibited | ameliorated | reduce
C=C(C)CC1C2c3c(Br)cccc3C(CC2(C)C)N1Cc1cccs1 (racemic) [Compound 11h, (±)-(1S,4R,9S)-5-Bromo-3,3-dimethyl-9-(2-methylallyl)-10-(thiophen-2-ylmethyl)-1,2,3,4-tetrahydro-1,4-(epiminomethano)naphthalene] | virtually no effect | 33.45±6.08 | did not significantly inhibit | ameliorated | reduce
